Target: HIS-TGFβR1 T204D (Homo sapiens (Human), UniProt P36897, T204D)
Assay: HTRF probe-displacement assay, HIS-TGFβR1 T204D
Assay type: binding
Conditions: 1 hour at room temperature

Chain of HIS-TGFβR1 T204D (P36897 34-503 T204D): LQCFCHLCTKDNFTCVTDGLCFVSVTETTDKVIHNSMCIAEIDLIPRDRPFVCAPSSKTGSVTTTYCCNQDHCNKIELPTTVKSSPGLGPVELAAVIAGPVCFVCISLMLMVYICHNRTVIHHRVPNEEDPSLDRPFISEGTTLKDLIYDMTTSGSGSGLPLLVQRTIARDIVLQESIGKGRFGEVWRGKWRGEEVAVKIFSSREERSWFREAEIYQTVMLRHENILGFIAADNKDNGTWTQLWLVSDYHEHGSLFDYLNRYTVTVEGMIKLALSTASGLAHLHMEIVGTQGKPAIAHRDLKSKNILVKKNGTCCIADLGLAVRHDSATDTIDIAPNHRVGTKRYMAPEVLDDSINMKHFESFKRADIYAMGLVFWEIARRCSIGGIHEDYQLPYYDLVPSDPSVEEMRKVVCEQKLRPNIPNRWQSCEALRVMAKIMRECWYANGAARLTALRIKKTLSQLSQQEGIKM

SMILES	IC50
Cc1cccc(-c2nc(Nc3ccncc3)c3cc(C(N)=O)cn3n2)n1 [Example 219, 2-(6-methylpyridin-2-yl)-4-[(pyridin-4-yl)amino]pyrrolo[2,1-f][1,2,4]triazine-6-carboxamide]	10 nM
O=C(Nc1cc(Nc2nc(-c3cccc(C(F)(F)F)n3)nn3cccc23)ccn1)C1CC1 [Example 335, N-[4-({2-[6-(trifluoromethyl)pyridin-2-yl]pyrrolo[2,1-f][1,2,4]triazin-4-yl}amino)pyridin-2-yl]cyclopropanecarboxamide]	0.37 nM
Fc1cnccc1Nc1nc(-c2ccccn2)nn2ccc(CNC3CNC3)c12 [Example 311, N-(5-{[(azetidin-3-yl)amino]methyl}-2-(pyridin-2-yl)pyrrolo[2,1-f][1,2,4]triazin-4-yl)-3-fluoropyridin-4-amine]	13 nM
CSc1nccc(-c2nc(Nc3ccncc3)c3cccn3n2)n1 [Example 215, N-{2-[2-(methylsulfanyl)pyrimidin-4-yl]pyrrolo[2,1-f][1,2,4]triazin-4-yl}pyridin-4-amine]	6.9 nM
Fc1cnccc1Nc1nc(-c2ccccn2)nn2ccc(CNc3ccc4[nH]nnc4c3)c12 [Example 306, N-({4-[(3-fluoropyridin-4-yl)amino]-2-(pyridin-2-yl)pyrrolo[2,1-f][1,2,4]triazin-5-yl}methyl)-1H-1,2,3-benzotriazol-5-amine]	5.3 nM
Fc1cnccc1Nc1nc(-c2ccccn2)nn2ccc(CNCCc3ccccn3)c12 [Example 304, 3-fluoro-N-[2-(pyridin-2-yl)-5-({[2-(pyridin-2-yl)ethyl]amino}methyl)pyrrolo[2,1-f][1,2,4]triazin-4-yl]pyridin-4-amine]	2.5 nM
COc1cccc(-c2nc(Nc3ccncc3F)c3cc(CNC[C@@H](F)C(C)(C)O)cn3n2)n1 [Example 208, (3R)-3-fluoro-4-[({4-[(3-fluoropyridin-4-yl)amino]-2-(6-methoxypyridin-2-yl)pyrrolo[2,1-f][1,2,4]triazin-6-yl}methyl)amino]-2-methylbutan-2-ol]	880 nM
O=C(NCCN1CCNCC1)c1cnccc1Nc1nc(-c2ccccn2)nn2cccc12 [Example 151, N-[2-(piperazin-1-yl)ethyl]-4-{[2-(pyridin-2-yl)pyrrolo[2,1-f][1,2,4]triazin-4-yl]amino}pyridine-3-carboxamide]	49 nM
CS(=O)(=O)Nc1cccc(-c2nc(Nc3ccncc3)c3cccn3n2)n1 [Example 8, N-(6-{4-[(pyridin-4-yl)amino]pyrrolo[2,1-f][1,2,4]triazin-2-yl}pyridin-2-yl)methanesulfonamide]	12 nM
Cc1cccc(-c2nc(Nc3ccncc3C(=O)N3CCOCC3)c3cccn3n2)n1 [Example 163, N-[2-(6-methylpyridin-2-yl)pyrrolo[2,1-f][1,2,4]triazin-4-yl]-3-(morpholine-4-carbonyl)pyridin-4-amine]	30 nM
NC(=O)c1cnccc1Nc1nc(-c2ccccn2)nn2cccc12 [Example 83, 4-{[2-(pyridin-2-yl)pyrrolo[2,1-f][1,2,4]triazin-4-yl]amino}pyridine-3-carboxamide]	0.76 nM
FC(F)(F)c1cccc(-c2nc(Nc3ccncc3OCCCN3CCOCC3)c3cccn3n2)n1 [Example 75]	210 nM
Cc1cccc(-c2nc(Nc3ccncc3OCCCCN(C)C)c3cccn3n2)n1 [Example 51, 3-[4-(dimethylamino)butoxy]-N-[2-(6-methylpyridin-2-yl)pyrrolo[2,1-f][1,2,4]triazin-4-yl]pyridin-4-amine]	30 nM
CS(=O)(=O)Nc1cccc(-c2nc(Nc3ccncc3Cl)c3cccn3n2)n1 [Example 90, N-(6-{4-[(3-chloropyridin-4-yl)amino]pyrrolo[2,1-f][1,2,4]triazin-2-yl}pyridin-2-yl)methanesulfonamide]	8.8 nM
CS(=O)(=O)N(c1cc2c(Nc3ccncc3F)nc(-c3cccc(C(F)(F)F)n3)nn2c1)S(C)(=O)=O [Example 111, N-{4-[(3-fluoropyridin-4-yl)amino]-2-[6-(trifluoromethyl)pyridin-2-yl]pyrrolo[2,1-f][1,2,4]triazin-6-yl}-N-methanesulfonylmethanesulfonamide]	52 nM
CC(C)(O)CNC(=O)c1cc(Nc2nc(-c3cccc(C(F)(F)F)n3)nn3cccc23)ccn1 [Example 324, N-(2-hydroxy-2-methylpropyl)-4-({2-[6-(trifluoromethyl)pyridin-2-yl]pyrrolo[2,1-f][1,2,4]triazin-4-yl}amino)pyridine-2-carboxamide]	4400 nM
OC1(c2ccccc2)CCN(Cc2ccn3nc(-c4ccccn4)nc(Nc4ccncc4F)c23)CC1 [Example 277, 1-({4-[(3-fluoropyridin-4-yl)amino]-2-(pyridin-2-yl)pyrrolo[2,1-f][1,2,4]triazin-5-yl}methyl)-4-phenylpiperidin-4-ol]	1.5 nM
Cc1cncc(-c2nc(Nc3ccncc3F)c3cccn3n2)n1 [Example 71, 3-fluoro-N-[2-(6-methylpyrazin-2-yl)pyrrolo[2,1-f][1,2,4]triazin-4-yl]pyridin-4-amine]	96 nM
COc1cccc(-c2nc(Nc3ccnc(C)c3)c3cccn3n2)n1 [Example 92, N-[2-(6-methoxypyridin-2-yl)pyrrolo[2,1-f][1,2,4]triazin-4-yl]-2-methylpyridin-4-amine]	1500 nM
COc1cccc(-c2nc(Nc3ccncc3COCCCN3CCOCC3)c3cccn3n2)n1 [Example 38, N-[2-(6-methoxypyridin-2-yl)pyrrolo[2,1-f][1,2,4]triazin-4-yl]-3-{[3-(morpholin-4-yl)propoxy]methyl}pyridin-4-amine]	680 nM
CC(=O)Nc1cc(Nc2nc(-c3cccc(C(F)(F)F)n3)nn3ccc(CNCC(C)(C)O)c23)ccn1 [Example 254, N-{4-[(5-{[(2-hydroxy-2-methylpropyl)amino]methyl}-2-[6-(trifluoromethyl)pyridin-2-yl]pyrrolo[2,1-f][1,2,4]triazin-4-yl)amino]pyridin-2-yl}acetamide]	2 nM
CN(C)CCNCc1ccn2nc(-c3ccccn3)nc(Nc3ccncc3F)c12 [Example 280, N-[5-({[2-(dimethylamino)ethyl]amino}methyl)-2-(pyridin-2-yl)pyrrolo[2,1-f][1,2,4]triazin-4-yl]-3-fluoropyridin-4-amine]	1.4 nM
Cc1cccc(-c2nc(Nc3ccncc3)c3cc(C(=O)N(C)C)cn3n2)n1 [Example 218, N,N-dimethyl-2-(6-methylpyridin-2-yl)-4-[(pyridin-4-yl)amino]pyrrolo[2,1-f][1,2,4]triazine-6-carboxamide]	130 nM

Other lines, results leading:

IC50	SMILES
1.1 nM	OC1CCCCC1NCc1ccn2nc(-c3ccccn3)nc(Nc3ccncc3F)c12 (stereo not drawn) [Example 272, 2-[({4-[(3-fluoropyridin-4-yl)amino]-2-(pyridin-2-yl)pyrrolo[2,1-f][1,2,4]triazin-5-yl}methyl)amino]cyclohexan-1-ol]
70 nM	Fc1cnccc1Nc1nc(-c2ccc(C(F)(F)F)cn2)nn2cccc12 [Example 248, 3-fluoro-N-{2-[5-(trifluoromethyl)pyridin-2-yl]pyrrolo[2,1-f][1,2,4]triazin-4-yl}pyridin-4-amine]
24 nM	CCOCCCNC(=O)c1cnccc1Nc1nc(-c2cccc(C(F)F)n2)nn2cccc12 [Example 172, 4-({2-[6-(difluoromethyl)pyridin-2-yl]pyrrolo[2,1-f][1,2,4]triazin-4-yl}amino)-N-(3-ethoxypropyl)pyridine-3-carboxamide]
28 nM	Cc1cccc(-c2nc(Nc3ccncc3C(=O)NC3CCOC3)c3cccn3n2)n1 (stereo not drawn) [Example 161, 4-{[2-(6-methylpyridin-2-yl)pyrrolo[2,1-f][1,2,4]triazin-4-yl]amino}-N-(oxolan-3-yl)pyridine-3-carboxamide]
83 nM	O=C(NCCCN1CCS(=O)(=O)CC1)c1cnccc1Nc1nc(-c2ccccn2)nn2cccc12 [Example 148, N-[3-(1,1-dioxo-1,4-thiomorpholin-4-yl)propyl]-4-{[2-(pyridin-2-yl)pyrrolo[2,1-f][1,2,4]triazin-4-yl]amino}pyridine-3-carboxamide]
890 nM	NC(=O)c1cc(Nc2nc(-c3cccc(C(F)(F)F)n3)nn3cccc23)ccn1 [Example 315, 4-({2-[6-(trifluoromethyl)pyridin-2-yl]pyrrolo[2,1-f][1,2,4]triazin-4-yl}amino)pyridine-2-carboxamide]
5 nM	COC(=O)Nc1cc(Nc2nc(-c3cccc(OC)n3)nn3cccc23)ccn1 [Example 68, Methyl N-(4-{[2-(6-methoxypyridin-2-yl)pyrrolo[2,1-f][1,2,4]triazin-4-yl]amino}pyridin-2-yl)carbamate]
50 nM	Cc1cccc(-c2nc(Nc3ccncc3C(=O)NCC(C)(C)O)c3cccn3n2)n1 [Example 156, N-(2-hydroxy-2-methylpropyl)-4-{[2-(6-methylpyridin-2-yl)pyrrolo[2,1-f][1,2,4]triazin-4-yl]amino}pyridine-3-carboxamide]
1.6 nM	Fc1cnccc1Nc1nc(-c2ccccn2)nn2ccc(CN3CCN(c4ncccn4)CC3)c12 [Example 276, 3-fluoro-N-[2-(pyridin-2-yl)-5-{[4-(pyrimidin-2-yl)piperazin-1-yl]methyl}pyrrolo[2,1-f][1,2,4]triazin-4-yl]pyridin-4-amine]
71 nM	Fc1cnccc1Nc1nc(-c2ccccn2)nn2ccc(CNc3ccc(-c4cnco4)cc3)c12 [Example 297, 3-fluoro-N-[5-({[4-(1,3-oxazol-5-yl)phenyl]amino}methyl)-2-(pyridin-2-yl)pyrrolo[2,1-f][1,2,4]triazin-4-yl]pyridin-4-amine]
0.6 nM	CC(C)(O)CNCC(=O)Nc1cc(Nc2nc(-c3cccc(C(F)(F)F)n3)nn3cccc23)ccn1 [Example 330, 2-[(2-hydroxy-2-methylpropyl)amino]-N-[4-({2-[6-(trifluoromethyl)pyridin-2-yl]pyrrolo[2,1-f][1,2,4]triazin-4-yl}amino)pyridin-2-yl]acetamide]
70 nM	CC(O)c1cccc(-c2nc(Nc3ccncc3F)c3cccn3n2)n1 (stereo not drawn) [Example 32, 1-(6-{4-[(3-fluoropyridin-4-yl)amino]pyrrolo[2,1-f][1,2,4]triazin-2-yl}pyridin-2-yl)ethan-1-ol]
28 nM	FC(F)(F)c1cccc(-c2nc(Nc3ccncn3)c3cccn3n2)n1 [Example 255, N-{2-[6-(trifluoromethyl)pyridin-2-yl]pyrrolo[2,1-f][1,2,4]triazin-4-yl}pyrimidin-4-amine]

Source: patent publication US10336761B2, “TGFβ receptor antagonist” (BRISTOL-MYERS SQUIBB COMPANY, priority 2015, dated 2019)
